Test results as given in patent US20240174618A1, “SUBSTITUTED (2-HETEROARYLOXYPHENYL)SULFONATES, SALTS THEREOF AND THEIR USE AS HERBICIDAL AGENTS” (Bayer Aktiengesellschaft, priority 2021, published 2024).

Legend:
Type in all cases: in vivo
[1] = system: Polygonum convolvulus (POLCO); assay: E. Herbicidal post-emergence efficacy, POLCO
Method in brief: (§1)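 Visual scoring against untreated plants was done roughly 3 weeks after spraying (0% = no effect, 100% = plants dead). Spray application at 320 g/ha or lower, 600 l/ha water with 0.5% additive, was made onto green parts of one-leaf-stage greenhouse plants grown 2-3 weeks in sandy loam.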

[2] = system: Abutilon theophrasti (ABUTH); assay: B. Herbicidal post-emergence efficacy, ABUTH; settings: rated visually after about 3 weeks
Method in brief: (§2)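 Post-emergence greenhouse test: one-leaf-stage plants, compound (WP/EC, +0.5% additive, 600 L/ha water, ≤1280 g/ha) applied to green parts; % efficacy scored visually vs untreated after ~3 wk; 100% = plants died.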

[3] = system: Echinochloa crus-galli (ECHCG); assay: A. Herbicidal pre-emergence efficacy, ECHCG; settings: scored visually after about 3 weeks vs untreated controls
Method in brief: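 Applied before emergence onto covering soil at rates of 1280 g/ha or less, using 600 L/ha spray water with 0.5% additive. Scoring: visual % efficacy after ~3 weeks, greenhouse.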

[4] = system: Triticum aestivum (TRZAS); assay: F. Post-emergence effect on useful plants, TRZAS; settings: useful plant
Method in brief: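 Visual efficacy rating versus untreated plants, from 0% (no effect) to 100% (plants died), made about 3 weeks after post-emergence treatment. Formulated compounds (WP or EC, 0.5% additive, 600 l/ha water) were sprayed onto greenhouse-grown crops at the one-leaf stage, 2-3 weeks after sowing.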

Veronica persica (VERPE) [5] = assay: B. Herbicidal post-emergence efficacy, VERPE
Method in brief: as §2

Veronica persica (VERPE) [6] = assay: E. Herbicidal post-emergence efficacy, VERPE
Method in brief: as §1

Setaria viridis (SETVI) = assay: C. Herbicidal pre-emergence efficacy, SETVI; settings: scored after about 3 weeks
Method in brief: (§3)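 Pre-emergence test: formulated compounds sprayed as aqueous suspension or emulsion with 0.5% additive at 600 l/ha onto soil covering sown seeds, at rates corresponding to 320 g/ha or less. After about 3 weeks in greenhouse, efficacy scored visually as percent versus untreated controls (100% = plants dead).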

[7] = system: Echinochloa crus-galli (ECHCG); assay: C. Herbicidal pre-emergence efficacy, ECHCG; settings: scored after about 3 weeks
Method in brief: as §3

Compound	Post-emergence efficacy against POLCO in % ([1]; application rate 80 g/ha)	Post-emergence efficacy against POLCO in % ([1]; application rate 320 g/ha)	Post-emergence efficacy against ABUTH in % ([2]; 80 g/ha)	Post-emergence efficacy against ABUTH in % ([2]; 320 g/ha)	Post-emergence efficacy against ABUTH in % ([2]; 1280 g/ha)	Pre-emergence efficacy against ECHCG ([3]; 80 g/ha)	Pre-emergence efficacy against ECHCG ([3]; 320 g/ha)	Pre-emergence efficacy against ECHCG ([3]; 1280 g/ha)	Post-emergence efficacy against TRZAS in % ([4]; application rate 80 g/ha)	Post-emergence efficacy against VERPE (Veronica persica (VERPE) [5]; 80 g/ha)	Post-emergence efficacy against VERPE (Veronica persica (VERPE) [5]; 320 g/ha)	Post-emergence efficacy against VERPE (Veronica persica (VERPE) [5]; 1280 g/ha)	Post-emergence efficacy against VERPE in % (Veronica persica (VERPE) [6]; application rate 80 g/ha)	Post-emergence efficacy against VERPE in % (Veronica persica (VERPE) [6]; application rate 320 g/ha)	Pre-emergence efficacy against SETVI (Setaria viridis (SETVI); 80 g/ha)	Pre-emergence efficacy against SETVI (Setaria viridis (SETVI); 320 g/ha)	Pre-emergence efficacy against ECHCG ([7]; 80 g/ha)	Pre-emergence efficacy against ECHCG ([7]; 320 g/ha)	Post-emergence efficacy against TRZAS in % ([4]; application rate 320 g/ha)
O=S(=O)(CCCCl)Oc1ccccc1Oc1ncc(Cl)cn1 [Example I-2]	100%	100%	100%	100%	100%	90%	100%	100%	0%	100%	100%	100%	100%	100%	100%	100%	90%	100%	
CCCS(=O)(=O)Oc1ccccc1Oc1ncc(Cl)cn1 [Example I-3]		90%		90%	100%		100%	100%	0%	90%	100%	100%	80%	90%	100%	100%	90%	100%	10%
O=S(=O)(CCCCl)Oc1ccccc1Oc1ncc(F)cn1 [Example I-5]	90%	100%	90%	100%	100%		100%	100%	20%	100%	100%	100%	90%	100%	90%	100%	100%	100%	
O=S(=O)(CCC(F)(F)F)Oc1ccccc1Oc1ncc(Cl)cn1 [Example I-8]	90%	90%			90%	90%	90%	100%	20%			90%	90%	100%	100%	100%	100%	100%	
O=S(=O)(CCl)Oc1ccccc1Oc1ncc(Cl)cn1 [Example I-9]		90%		90%	90%			100%	20%			100%	80%	90%		90%		90%	
